Reference: ChEMBL document CHEMBL4507311, “Data for DCP probe A-1155463” (2021)

Key:
[1] = biological target: Vascular endothelial growth factor receptor 2 (Homo sapiens) (UniProt P35968); settings: Compound concentration 1000.0 nM
[2] = biological target: T1, 5-hydroxytryptamine receptor 2C (Homo sapiens) (UniProt P28335); settings: Compound concentration 10.0 uM
T1 sequence (whole entry): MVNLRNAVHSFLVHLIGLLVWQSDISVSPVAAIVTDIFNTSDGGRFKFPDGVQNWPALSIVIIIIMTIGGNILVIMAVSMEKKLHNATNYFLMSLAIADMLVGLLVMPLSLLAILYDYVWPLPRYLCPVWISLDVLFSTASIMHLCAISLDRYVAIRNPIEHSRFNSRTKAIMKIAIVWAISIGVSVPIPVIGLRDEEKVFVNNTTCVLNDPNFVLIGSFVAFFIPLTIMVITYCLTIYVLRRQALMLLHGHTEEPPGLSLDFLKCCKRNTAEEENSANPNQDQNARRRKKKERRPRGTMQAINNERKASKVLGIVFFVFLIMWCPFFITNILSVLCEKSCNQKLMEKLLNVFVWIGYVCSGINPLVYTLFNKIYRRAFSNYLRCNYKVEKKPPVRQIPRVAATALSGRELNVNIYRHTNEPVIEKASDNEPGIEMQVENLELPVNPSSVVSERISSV

[3] = biological target: Phosphorylase b kinase gamma catalytic chain, skeletal muscle/heart isoform (Homo sapiens) (UniProt Q16816); settings: Compound concentration 1000.0 nM
[4] = biological target: T2, Alpha-1B adrenergic receptor (Homo sapiens) (UniProt P35368); settings: Compound concentration 10.0 uM
T2 sequence (whole entry): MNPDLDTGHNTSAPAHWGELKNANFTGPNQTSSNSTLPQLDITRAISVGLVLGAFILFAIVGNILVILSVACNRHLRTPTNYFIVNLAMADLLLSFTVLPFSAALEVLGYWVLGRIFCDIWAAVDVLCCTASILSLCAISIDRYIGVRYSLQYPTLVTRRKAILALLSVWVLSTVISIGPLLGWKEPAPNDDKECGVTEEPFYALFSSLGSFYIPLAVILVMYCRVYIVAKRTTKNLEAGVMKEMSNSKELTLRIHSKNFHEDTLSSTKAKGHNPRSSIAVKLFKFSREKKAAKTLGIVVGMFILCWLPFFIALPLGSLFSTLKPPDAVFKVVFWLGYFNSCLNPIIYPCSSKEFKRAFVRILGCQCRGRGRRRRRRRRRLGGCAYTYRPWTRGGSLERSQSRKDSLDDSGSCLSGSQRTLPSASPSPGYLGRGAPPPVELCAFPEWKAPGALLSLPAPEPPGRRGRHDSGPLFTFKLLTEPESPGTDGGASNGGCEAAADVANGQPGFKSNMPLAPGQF

[5] = system: Proto-oncogene tyrosine-protein kinase receptor Ret (Homo sapiens), P07949 [V804L]; settings: Compound concentration 1000.0 nM
[6] = biological target: Serine/threonine-protein kinase MARK2 (Homo sapiens) (UniProt Q7KZI7); settings: Compound concentration 1000.0 nM
[7] = biological target: Dual specificity mitogen-activated protein kinase kinase 5 (Homo sapiens) (UniProt Q13163); settings: Compound concentration 1000.0 nM
[8] = biological target: Ribosomal protein S6 kinase alpha-1 (Homo sapiens) (UniProt Q15418); settings: Compound concentration 1000.0 nM
[9] = system: Epidermal growth factor receptor (Homo sapiens), P00533 [T790M]; settings: Compound concentration 1000.0 nM
[10] = biological target: Serine/threonine-protein kinase B-raf (Homo sapiens) (UniProt P15056); settings: Compound concentration 1000.0 nM
[11] = biological target: T3, Muscarinic acetylcholine receptor M4 (Homo sapiens) (UniProt P08173); settings: Compound concentration 10.0 uM
T3 sequence (whole entry): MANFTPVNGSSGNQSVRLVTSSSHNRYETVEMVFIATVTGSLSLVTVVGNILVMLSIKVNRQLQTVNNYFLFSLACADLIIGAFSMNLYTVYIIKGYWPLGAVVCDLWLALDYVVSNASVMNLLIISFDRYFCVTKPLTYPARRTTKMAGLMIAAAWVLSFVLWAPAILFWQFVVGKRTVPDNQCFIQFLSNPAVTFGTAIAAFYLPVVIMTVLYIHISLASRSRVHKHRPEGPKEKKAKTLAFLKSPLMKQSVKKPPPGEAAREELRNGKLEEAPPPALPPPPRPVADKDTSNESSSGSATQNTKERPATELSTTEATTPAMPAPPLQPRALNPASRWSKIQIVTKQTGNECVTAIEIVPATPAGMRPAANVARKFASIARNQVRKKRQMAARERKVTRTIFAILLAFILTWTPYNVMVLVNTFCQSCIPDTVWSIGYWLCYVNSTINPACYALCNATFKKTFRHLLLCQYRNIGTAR

[12] = system: Epidermal growth factor receptor (Homo sapiens), P00533 [UNDEFINED MUTATION]; settings: Compound concentration 1000.0 nM
[13] = biological target: Serine/threonine-protein kinase MRCK beta (Homo sapiens) (UniProt Q9Y5S2); settings: Compound concentration 1000.0 nM
[14] = biological target: Cyclin-G-associated kinase (Homo sapiens) (UniProt O14976); settings: Compound concentration 1000.0 nM
[15] = biological target: Cytoplasmic tyrosine-protein kinase BMX (Homo sapiens) (UniProt P51813); settings: Compound concentration 1000.0 nM
[16] = biological target: Mitogen-activated protein kinase 14 (Homo sapiens) (UniProt Q16539); settings: Compound concentration 1000.0 nM
[17] = biological target: Phosphatidylinositol 5-phosphate 4-kinase type-2 gamma (Homo sapiens) (UniProt Q8TBX8); settings: Compound concentration 1000.0 nM
[18] = system: Epidermal growth factor receptor (Homo sapiens), P00533 [L861Q]; settings: Compound concentration 1000.0 nM
[19] = biological target: Tyrosine-protein kinase TXK (Homo sapiens) (UniProt P42681); settings: Compound concentration 1000.0 nM
[20] = biological target: Tyrosine-protein kinase Tec (Homo sapiens) (UniProt P42680); settings: Compound concentration 1000.0 nM
[21] = biological target: Insulin receptor (Homo sapiens) (UniProt P06213); settings: Compound concentration 1000.0 nM
[22] = biological target: Cyclin-dependent kinase 8 (Homo sapiens) (UniProt P49336); settings: Compound concentration 1000.0 nM
[23] = biological target: Ribosomal protein S6 kinase alpha-3 (Homo sapiens) (UniProt P51812); settings: Compound concentration 1000.0 nM
[24] = biological target: Serine/threonine-protein kinase 38 (Homo sapiens) (UniProt Q15208); settings: Compound concentration 1000.0 nM
[25] = biological target: Serine/threonine-protein kinase pim-1 (Homo sapiens) (UniProt P11309); settings: Compound concentration 1000.0 nM
Serine/threonine-protein kinase pim-1 (Homo sapiens), sequence (P11309 whole entry, looked up): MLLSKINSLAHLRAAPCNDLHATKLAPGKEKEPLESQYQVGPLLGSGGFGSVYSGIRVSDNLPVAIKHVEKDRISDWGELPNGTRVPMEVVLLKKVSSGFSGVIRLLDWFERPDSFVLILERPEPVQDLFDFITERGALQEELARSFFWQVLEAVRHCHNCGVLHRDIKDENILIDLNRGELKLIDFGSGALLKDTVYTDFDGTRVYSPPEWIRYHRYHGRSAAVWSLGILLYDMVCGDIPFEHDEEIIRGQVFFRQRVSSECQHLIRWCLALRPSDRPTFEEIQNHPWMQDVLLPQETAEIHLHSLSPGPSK

Phosphorylase b kinase gamma catalytic chain, skeletal muscle/heart isoform (Homo sapiens), sequence (Q16816 whole entry, looked up, canonical isoform): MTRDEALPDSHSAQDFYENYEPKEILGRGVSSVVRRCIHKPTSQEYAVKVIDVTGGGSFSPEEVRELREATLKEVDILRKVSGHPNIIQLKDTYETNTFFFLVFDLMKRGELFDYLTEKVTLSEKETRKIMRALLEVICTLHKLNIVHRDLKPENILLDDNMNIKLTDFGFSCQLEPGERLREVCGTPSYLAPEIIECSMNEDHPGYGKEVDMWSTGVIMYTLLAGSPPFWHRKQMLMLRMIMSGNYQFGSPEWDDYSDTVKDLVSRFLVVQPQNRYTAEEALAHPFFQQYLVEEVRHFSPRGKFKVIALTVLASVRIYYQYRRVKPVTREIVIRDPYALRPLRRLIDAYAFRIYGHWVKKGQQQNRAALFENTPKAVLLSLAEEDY
Mitogen-activated protein kinase 14 (Homo sapiens), sequence (Q16539 whole entry): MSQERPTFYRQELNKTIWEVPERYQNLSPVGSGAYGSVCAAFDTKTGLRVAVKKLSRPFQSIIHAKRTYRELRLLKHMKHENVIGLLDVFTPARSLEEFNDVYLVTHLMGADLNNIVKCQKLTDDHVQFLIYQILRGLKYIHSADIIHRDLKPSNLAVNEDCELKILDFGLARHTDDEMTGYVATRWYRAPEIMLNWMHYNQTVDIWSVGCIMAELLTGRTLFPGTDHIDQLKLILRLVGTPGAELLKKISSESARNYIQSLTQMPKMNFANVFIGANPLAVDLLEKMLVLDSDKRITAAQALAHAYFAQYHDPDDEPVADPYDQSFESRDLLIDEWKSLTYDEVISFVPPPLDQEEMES
Insulin receptor (Homo sapiens), sequence (P06213 28-758 limits assumed): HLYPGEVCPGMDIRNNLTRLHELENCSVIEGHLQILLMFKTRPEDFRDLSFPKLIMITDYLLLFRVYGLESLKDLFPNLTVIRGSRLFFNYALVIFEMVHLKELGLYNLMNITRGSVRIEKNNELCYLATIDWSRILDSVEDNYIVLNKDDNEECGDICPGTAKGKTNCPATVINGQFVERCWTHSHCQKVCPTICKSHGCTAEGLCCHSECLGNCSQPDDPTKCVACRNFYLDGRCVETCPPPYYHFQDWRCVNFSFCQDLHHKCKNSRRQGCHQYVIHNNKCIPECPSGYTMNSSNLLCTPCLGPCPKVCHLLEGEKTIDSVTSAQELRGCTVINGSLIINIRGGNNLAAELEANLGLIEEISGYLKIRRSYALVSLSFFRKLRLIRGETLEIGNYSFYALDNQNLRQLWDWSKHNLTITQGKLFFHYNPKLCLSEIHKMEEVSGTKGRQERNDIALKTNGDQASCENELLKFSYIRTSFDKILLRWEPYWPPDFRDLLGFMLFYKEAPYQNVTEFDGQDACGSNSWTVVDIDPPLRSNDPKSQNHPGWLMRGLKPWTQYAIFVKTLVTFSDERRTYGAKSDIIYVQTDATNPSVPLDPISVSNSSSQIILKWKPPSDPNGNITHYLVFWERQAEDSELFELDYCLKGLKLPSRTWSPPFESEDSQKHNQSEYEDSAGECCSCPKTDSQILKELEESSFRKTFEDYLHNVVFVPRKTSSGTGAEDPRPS
Insulin receptor (Homo sapiens), sequence (P06213 763-1382 limits assumed): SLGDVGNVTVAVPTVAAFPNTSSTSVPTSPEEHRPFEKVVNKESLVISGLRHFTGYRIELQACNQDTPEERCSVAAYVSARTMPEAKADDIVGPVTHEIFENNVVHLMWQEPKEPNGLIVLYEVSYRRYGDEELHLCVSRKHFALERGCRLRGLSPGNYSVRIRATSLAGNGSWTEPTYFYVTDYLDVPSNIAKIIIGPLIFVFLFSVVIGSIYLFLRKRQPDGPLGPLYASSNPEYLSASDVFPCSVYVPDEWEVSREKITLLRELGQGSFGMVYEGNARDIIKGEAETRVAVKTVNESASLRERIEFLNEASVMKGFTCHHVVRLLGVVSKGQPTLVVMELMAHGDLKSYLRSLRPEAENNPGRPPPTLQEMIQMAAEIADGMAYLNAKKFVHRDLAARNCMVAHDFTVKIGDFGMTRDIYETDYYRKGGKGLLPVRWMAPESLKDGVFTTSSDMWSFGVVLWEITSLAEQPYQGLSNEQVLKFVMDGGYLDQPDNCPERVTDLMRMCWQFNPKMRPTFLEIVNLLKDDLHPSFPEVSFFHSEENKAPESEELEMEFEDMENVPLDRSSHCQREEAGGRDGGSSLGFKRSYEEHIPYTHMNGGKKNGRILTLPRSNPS
Ribosomal protein S6 kinase alpha-3 (Homo sapiens), sequence (P51812 whole entry): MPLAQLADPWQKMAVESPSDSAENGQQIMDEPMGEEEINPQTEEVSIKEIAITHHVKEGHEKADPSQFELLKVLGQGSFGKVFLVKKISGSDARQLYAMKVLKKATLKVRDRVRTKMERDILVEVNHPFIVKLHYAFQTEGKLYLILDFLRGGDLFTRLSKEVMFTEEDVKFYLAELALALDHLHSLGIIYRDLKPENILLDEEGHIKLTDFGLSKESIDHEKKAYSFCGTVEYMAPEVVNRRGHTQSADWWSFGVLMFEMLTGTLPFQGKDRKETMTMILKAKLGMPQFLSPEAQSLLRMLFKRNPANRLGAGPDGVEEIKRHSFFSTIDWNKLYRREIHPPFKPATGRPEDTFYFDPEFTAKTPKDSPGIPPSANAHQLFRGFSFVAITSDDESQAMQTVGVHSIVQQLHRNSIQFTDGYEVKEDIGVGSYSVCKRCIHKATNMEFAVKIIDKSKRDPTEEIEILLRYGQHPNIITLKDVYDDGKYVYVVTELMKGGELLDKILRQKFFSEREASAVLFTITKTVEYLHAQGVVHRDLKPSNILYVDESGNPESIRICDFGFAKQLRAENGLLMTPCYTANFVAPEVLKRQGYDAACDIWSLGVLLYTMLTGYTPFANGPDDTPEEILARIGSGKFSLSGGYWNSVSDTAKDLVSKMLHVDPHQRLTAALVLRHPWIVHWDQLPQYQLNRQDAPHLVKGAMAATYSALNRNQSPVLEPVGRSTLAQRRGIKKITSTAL
Dual specificity mitogen-activated protein kinase kinase 5 (Homo sapiens), sequence (Q13163 whole entry): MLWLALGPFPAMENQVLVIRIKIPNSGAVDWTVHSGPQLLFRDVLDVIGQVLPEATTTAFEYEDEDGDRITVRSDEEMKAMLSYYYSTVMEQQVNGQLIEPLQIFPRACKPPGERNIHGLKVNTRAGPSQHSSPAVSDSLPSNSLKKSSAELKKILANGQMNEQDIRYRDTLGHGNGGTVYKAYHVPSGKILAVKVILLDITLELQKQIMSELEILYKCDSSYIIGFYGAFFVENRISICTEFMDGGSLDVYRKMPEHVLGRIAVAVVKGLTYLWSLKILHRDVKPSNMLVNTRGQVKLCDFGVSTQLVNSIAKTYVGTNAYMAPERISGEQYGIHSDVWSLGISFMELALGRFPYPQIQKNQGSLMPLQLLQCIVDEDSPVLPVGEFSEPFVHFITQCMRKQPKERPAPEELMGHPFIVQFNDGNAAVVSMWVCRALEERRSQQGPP
Cyclin-dependent kinase 8 (Homo sapiens), sequence (P49336 whole entry): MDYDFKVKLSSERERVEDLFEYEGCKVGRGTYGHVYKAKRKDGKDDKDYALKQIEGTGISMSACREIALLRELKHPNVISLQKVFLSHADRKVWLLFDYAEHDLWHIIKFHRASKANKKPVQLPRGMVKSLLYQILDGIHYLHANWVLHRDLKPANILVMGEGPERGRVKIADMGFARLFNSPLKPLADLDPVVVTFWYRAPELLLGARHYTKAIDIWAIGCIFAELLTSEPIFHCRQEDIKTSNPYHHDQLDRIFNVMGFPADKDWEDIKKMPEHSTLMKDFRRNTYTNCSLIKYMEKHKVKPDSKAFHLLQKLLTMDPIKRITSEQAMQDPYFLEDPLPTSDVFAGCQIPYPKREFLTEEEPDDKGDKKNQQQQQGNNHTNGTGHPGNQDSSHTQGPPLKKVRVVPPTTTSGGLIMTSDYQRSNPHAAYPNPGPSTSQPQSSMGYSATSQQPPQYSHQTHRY
Phosphatidylinositol 5-phosphate 4-kinase type-2 gamma (Homo sapiens), sequence (Q8TBX8 whole entry): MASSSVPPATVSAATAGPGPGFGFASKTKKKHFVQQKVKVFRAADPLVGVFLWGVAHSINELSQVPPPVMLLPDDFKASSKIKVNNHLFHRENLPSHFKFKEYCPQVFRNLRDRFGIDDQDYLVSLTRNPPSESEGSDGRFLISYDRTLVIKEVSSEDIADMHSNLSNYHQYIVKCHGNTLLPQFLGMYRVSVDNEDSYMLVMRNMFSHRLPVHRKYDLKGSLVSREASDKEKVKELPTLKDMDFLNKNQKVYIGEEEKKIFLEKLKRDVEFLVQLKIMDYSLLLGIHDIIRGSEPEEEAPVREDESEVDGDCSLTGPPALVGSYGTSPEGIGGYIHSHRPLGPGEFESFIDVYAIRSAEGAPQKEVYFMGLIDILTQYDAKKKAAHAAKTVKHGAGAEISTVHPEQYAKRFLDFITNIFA
Serine/threonine-protein kinase 38 (Homo sapiens), sequence (Q15208 2-465 limits assumed): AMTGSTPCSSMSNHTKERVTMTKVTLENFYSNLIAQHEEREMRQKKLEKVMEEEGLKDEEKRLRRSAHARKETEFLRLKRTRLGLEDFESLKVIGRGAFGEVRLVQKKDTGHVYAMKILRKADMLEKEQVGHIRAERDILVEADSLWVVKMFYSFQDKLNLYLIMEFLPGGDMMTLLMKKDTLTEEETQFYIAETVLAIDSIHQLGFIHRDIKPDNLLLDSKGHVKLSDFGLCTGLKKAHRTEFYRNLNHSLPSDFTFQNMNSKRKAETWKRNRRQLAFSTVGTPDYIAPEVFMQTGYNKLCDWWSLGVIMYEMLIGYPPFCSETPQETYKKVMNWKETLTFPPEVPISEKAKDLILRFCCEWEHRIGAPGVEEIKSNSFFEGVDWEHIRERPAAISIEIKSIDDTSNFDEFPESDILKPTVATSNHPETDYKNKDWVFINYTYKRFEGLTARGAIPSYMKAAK

CN(C)CC#Cc1ccc(OCCCc2sc(N3CCc4cccc(C(=O)Nc5nc6ccccc6s5)c4C3)nc2C(=O)O)c(F)c1 [A-1155463]
inactive: residual activity [1] 100% | inhibition [2] 1.97% | residual activity [3] 98% | inhibition [4] 0.97% | residual activity [5] 100% | residual activity [6] 100% | residual activity [7] 100% | residual activity [8] 81% | residual activity [9] 100% | residual activity [10] 100% | inhibition [11] -3.11% | residual activity [12] 100% | residual activity [13] 87% | residual activity [14] 100% | residual activity [15] 82% | residual activity [16] 100% | residual activity [17] 100% | residual activity [18] 100% | residual activity [19] 100% | residual activity [20] 97% | residual activity [21] 92% | residual activity [22] 69% | residual activity [23] 97% | residual activity [24] 76% | residual activity [25] 100%
